According to PMC10349142, “Minimal mechanistic component of HbYX-dependent proteasome activation that reverses impairment by neurodegenerative-associated oligomers” (Communications Biology, 2023):

Columns and labels:
[1] = molecular target: T1, Mammalian 20S proteasome (M20S); assay: fluorogenic peptide hydrolysis, activator saturation curve; format: biochemical, Bos taurus
T1 construct: gene PSMA5; native 20S core particle purified from bovine liver; alpha7-beta7-beta7-alpha7; with Proteasome subunit beta type-1; Proteasome subunit beta type-2; Proteasome subunit beta type-3; Proteasome subunit beta type-4; Proteasome subunit beta type-5; Proteasome subunit beta type-6; Proteasome subunit beta type-7
Source text: fluorogenic peptide hydrolysis, activator saturation curve on Mammalian 20S proteasome (M20S)

[2] = molecular target: T1, Mammalian 20S proteasome (M20S); assay: fluorogenic peptide hydrolysis, activator saturation curve (Hill fit); format: biochemical, Bos taurus; details: activation (gate opening); nLPnLD-AMC substrate; 0.5 nM 20S; pH 7.5; 37 °C; 2% DMSO; allosteric, alpha intersubunit pockets; read-out: Kobs
Source text: fluorogenic peptide hydrolysis, activator saturation curve (Hill fit) on Mammalian 20S proteasome (M20S)

[3] = molecular target: T2, T. acidophilum 20S proteasome (T20S) (Thermoplasma acidophilum, UniProt P25156); assay: LFP nonapeptide hydrolysis, dose response; format: biochemical; details: activation (gate opening); 7 nM T20S; LFP substrate; pH 7.5; 45 °C; 2% DMSO; allosteric, alpha intersubunit pockets
T2 construct: gene psmA; recombinant 20S core particle; 8xHis tag on C-terminus of beta subunit; with Proteasome subunit beta
T2 sequence (P28061 9-211, stated change not applied): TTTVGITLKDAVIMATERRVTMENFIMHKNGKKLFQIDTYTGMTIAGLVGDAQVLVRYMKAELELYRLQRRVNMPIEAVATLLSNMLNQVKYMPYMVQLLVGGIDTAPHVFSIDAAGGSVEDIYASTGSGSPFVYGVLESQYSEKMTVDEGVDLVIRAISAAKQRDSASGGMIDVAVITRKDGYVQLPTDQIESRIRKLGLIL
T2 sequence (P25156 whole entry, stated change not applied): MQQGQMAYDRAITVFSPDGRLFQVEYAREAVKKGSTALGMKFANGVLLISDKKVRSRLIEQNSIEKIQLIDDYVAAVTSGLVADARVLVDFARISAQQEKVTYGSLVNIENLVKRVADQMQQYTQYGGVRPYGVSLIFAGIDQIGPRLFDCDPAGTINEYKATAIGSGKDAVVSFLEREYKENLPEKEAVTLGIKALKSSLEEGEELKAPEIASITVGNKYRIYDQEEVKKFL

[4] = molecular target: T3, T. acidophilum 20S proteasome (T20S) (Thermoplasma acidophilum, UniProt P25156, DEL2-12); assay: LFP nonapeptide hydrolysis; format: biochemical; details: 7 nM T20S; LFP substrate; pH 7.5; 45 °C; 2% DMSO
T3 construct: gene psmA; recombinant 20S core particle; 8xHis tag on C-terminus of beta subunit; with Proteasome subunit beta
T3 sequence (P25156 other isoform, or with tags, fused parts or gaps DEL2-12): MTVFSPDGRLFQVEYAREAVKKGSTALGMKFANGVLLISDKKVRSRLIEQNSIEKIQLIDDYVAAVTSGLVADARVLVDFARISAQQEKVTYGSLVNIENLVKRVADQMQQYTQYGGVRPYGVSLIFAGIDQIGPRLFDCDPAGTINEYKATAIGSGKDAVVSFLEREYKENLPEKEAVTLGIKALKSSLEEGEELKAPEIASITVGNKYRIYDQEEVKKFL
T3 sequence (P28061 9-211, stated change not applied, further chain): as the sequence (P28061 9-211, stated change not applied) above

[5] = molecular target: T4, T. acidophilum 20S proteasome (T20S) (Thermoplasma acidophilum, UniProt P25156, K66A); assay: LFP nonapeptide hydrolysis; format: biochemical; details: 7 nM T20S; LFP substrate; pH 7.5; 45 °C; 2% DMSO
T4 construct: gene psmA; recombinant 20S core particle; 8xHis tag on C-terminus of beta subunit; with Proteasome subunit beta
T4 sequence (P25156 whole entry K66A): as the sequence (P25156 whole entry, stated change not applied) above, with K66A counted along it
T4 sequence (P28061 9-211, further chain): as the sequence (P28061 9-211, stated change not applied) above

[6] = activation; pH 7.5; 37 °C; 2% DMSO; site unknown; read-out: Kobs

Work on CCCCC/C=C\C/C=C\C/C=C\C/C=C\CCCC(=O)Nc1ccc(O)cc1 [AM-404] yielded an EC50 ([1]; read-out: Kobs; activation; pH 7.5; 37 °C; 2% DMSO; site unknown) of 12.1 µM.
For O=C1NCN(c2ccccc2)C12CCN(CCCC(c1ccc(F)cc1)c1ccc(F)cc1)CC2 [Fluspirilene], the EC50 [1, 6] was 2.7 µM.
CCOC(=O)[C@]1(c2ccccc2)N=C(c2ccc(OC)cc2)N(Cc2ccccc2)[C@@H]1c1ccc(NCc2ccccc2)cc1 [TCH-165] gave an EC50 [1, 6] of 0.8 µM.
With C[C@H](NC(=O)[C@H](Cc1ccc(O)cc1)NC(=O)OCc1ccccc1)C(=O)O [ZYA] the EC50 [2] was 970 µM, the affinity [3] was “highly similar to its affinity for the T20S (Fig. 2b)” and the “no activation at 2.5 mM” value [4] was “ZYA did not stimulate the activity of αΔN-T20S to any extent (Fig. 2e)”. The “no activation at 2.5 mM” value [5] was “it could not stimulate gate-opening in T20S-K66A to any extent (Fig. 2d)”.
